We go through one compound from patent US8338641B2, “Method for treating atypical facial pain” (UCB Pharma GmbH, priority 2004, dated 2012).

Entries after “also recorded” stand apart in the source; their conditions may differ.

For data set [1], the system named is rats with infraorbital nerve injury. In words: Motor deficits observed in rats with IoN injury after drug injection. The note with it: i.p., doses 7.5-30 mg/kg. In kind it is in vivo, rat. The procedure:
(§1) Male and female Sprague-Dawley rats (Möllegård, Denmark) weighing 200-250 g at the start of the experiments were used. All experimental procedures were approved by the local research ethics committee.
(§2) SPM 927 was dissolved in physiological saline and injected intraperitoneally. The data are expressed as median±M.A.D. and analysed with Wilcoxon signed-ranks test.

For data set [2] the test system is unchanged. Kind of data set: Mechanical sensitivity (von Frey filaments) after photochemically-induced ischemic infraorbital nerve (IoN) injury, model of trigeminal neuropathic pain. The data set is classed as in vivo, rat. The note with it: for effect on mechanical hypersensitivity (response threshold to von Frey stimulation): 14-16 days after IoN injury. As for the experimental part:
as §1
Rats were anesthetized with chloral hydrate. The left IoN was exposed via a longitudinal incision at the maxillary region and all branches of the nerve were carefully lifted on a glass hook. A piece of aluminium foil was placed under the nerve and the nerve was irradiated for 6 min with the tunable argon ion laser. The rat was positioned so that the laser beam was perpendicular and transversal to the exposed nerve. Immediately before irradiation erythrosin B was injected i.v. and the injection was repeated after 5 min. After irradiation the wound was closed in layers.
Mechanical sensitivity was tested with a series of von Frey filaments. The rat was gently held by the experimenter and the von Frey filaments were applied in ascending order to the IoN territory on the hairy skin of the vibrissal pad. The stimulation with each filament consisted of four consecutive applications at 1/s on the injured and then on the contralateral side. […] The rats were habituated to the testing procedure for several days before nerve injury and baseline response was determined in two sessions. Testing was carried out 3, 7, 10 and 14 d after the injury to assess the development of mechanical hypersensitivity. The effect of SPM 927 (7.5, 15, and 30 mg/kg) was tested 14-16 days after injury when mechanical hypersensitivity was well established. Measurements were taken 30 min, 1 h, 2 h, and 3 h following drug injection.
as §2

For `COC[C@@H](NC(C)=O)C(=O)NCc1ccccc1` [SPM 927, (R)-2-acetamide-N-benzyl-3-methoxypropionamide], in data set [1], the motor deficits entry is reported as “did not cause motor deficits”. The “effect on mechanical hypersensitivity (response threshold to von Frey stimulation)” value in data set [2] (female rats, 7.5 mg/kg i.p.) was “no effect”; in data set [2] (female rats, 15 mg/kg i.p.), “significantly and markedly alleviated mechanical hypersensitivity”; in data set [2] (female rats, 20 mg/kg i.p.) it was “significantly and markedly alleviated mechanical hypersensitivity”; in data set [2] (male rats, 15 mg/kg i.p.), “did not alleviate mechanical hypersensitivity”; in data set [2] (male rats, 20 mg/kg i.p.), “did not alleviate mechanical hypersensitivity”; in data set [2] (male rats, 30 mg/kg i.p.) it was “significantly alleviated mechanical hypersensitivity for 3 h”. For the same compound, in data set [2] (systemic, single dose administration), the “overall analgesic or/and anti-allodynic effect in rat model of trigeminal neuropathic pain” value is reported as “dose-dependent analgesic or/and anti-allodynic effect; also recorded: significant efficacy in reducing mechanical hypersensitivity”.
